Results as given in publication PMC8539097, “Structural Insight into a Yeast Maltase—The BaAG2 from Blastobotrys adeninivorans with Transglycosylating Activity” (Journal of Fungi, 2021).

Molecular target: T1, BaAG2 (Blastobotrys adeninivorans, UniProt Z9CO09ION3)
T1 construct: wild type, recombinant from plasmid pURI3-BaAG2Cter in E. coli BL21(DE3), Ni-IMAC purified (plus SEC for crystals); domains span residues 1-581; most likely monomer
T1 sequence (Z9CO09ION3 1-580): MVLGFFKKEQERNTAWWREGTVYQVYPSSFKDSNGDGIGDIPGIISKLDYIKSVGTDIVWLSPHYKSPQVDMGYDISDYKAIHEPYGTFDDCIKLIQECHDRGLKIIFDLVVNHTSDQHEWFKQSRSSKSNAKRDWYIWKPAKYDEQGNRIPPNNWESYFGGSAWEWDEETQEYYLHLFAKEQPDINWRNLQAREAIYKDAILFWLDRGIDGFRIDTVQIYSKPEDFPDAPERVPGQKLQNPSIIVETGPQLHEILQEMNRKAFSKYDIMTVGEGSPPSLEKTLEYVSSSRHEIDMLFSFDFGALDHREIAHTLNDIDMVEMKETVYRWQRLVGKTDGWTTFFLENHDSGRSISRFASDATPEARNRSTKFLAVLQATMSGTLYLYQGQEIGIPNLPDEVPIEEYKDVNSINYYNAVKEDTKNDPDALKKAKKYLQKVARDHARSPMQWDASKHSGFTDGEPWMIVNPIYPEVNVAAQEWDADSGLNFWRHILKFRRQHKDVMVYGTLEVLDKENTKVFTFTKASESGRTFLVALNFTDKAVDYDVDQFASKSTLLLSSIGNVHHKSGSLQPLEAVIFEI
Experiment: X-ray crystallography, crystal soaking, […] Å
Type: binding
Settings: pH 5.5, 100 mM glucose soak; active site, subsite -1

OC[C@H]1OC(O)[C@H](O)[C@@H](O)[C@@H]1O (stereo partly drawn) [D-glucose]
X-ray crystallography, crystal soaking, 2.13 Å: codes 7P01 (BaAG2-acarbose) and 7P07 (BaAG2-glucose)
